The target of this experiment is His-Tagged hOGA (human O-GlcNAcase) (Homo sapiens (Human), UniProt O60502). The experiment can be described thus: Human O-GlcNAcase enzyme inhibition assay (Example B01). To be noted: OGA enzyme inhibition assay; FL-GlcNAc substrate, 60 min, room temperature, pH 6.5. In kind it is biochemical. As for the experimental part: Example B01: Human O-GlcNAcase Enzyme Inhibition Assay
5 μl of the appropriate concentration of a solution of inhibitor in McIlvaine's Buffer (pH 6.5) in 2% DMSO (for a dose response curve calculation) is added into each well of a 384-well plate (Greiner, 781900). Then, 20 nM of His-Tagged hOGA and 10 μM of FL-GlcNAc (Fluorescein mono-beta-D-(2-deoxy-2-N-acetyl) glucopyranoside; Marker Gene Technologies Inc, M1485) were added to the 384-well plate for a final volume of 20 μl. After incubation for 60 min at room temperature, the reaction was terminated by the addition of 10 μL of stop buffer (200 mM glycine, pH 10.75). The level of fluorescence (λexc 485 nm; (λemm 520 nm) was read on a PHERAstar machine. The amount of fluorescence measured was plotted against the concentration of inhibitor to produce a sigmoidal dose response curve to calculate an IC50. All individual data was corrected by subtraction of the background (Thiamet 3 uM=100% inhibition) whilst 0.5% DMSO was considered as the control value (no inhibition).

Usually IC50 stands for the concentration at which inhibition is half-maximal. High values mean weaker potency, low ones greater potency.

His-Tagged hOGA (human O-GlcNAcase), sequence (O60502 whole entry): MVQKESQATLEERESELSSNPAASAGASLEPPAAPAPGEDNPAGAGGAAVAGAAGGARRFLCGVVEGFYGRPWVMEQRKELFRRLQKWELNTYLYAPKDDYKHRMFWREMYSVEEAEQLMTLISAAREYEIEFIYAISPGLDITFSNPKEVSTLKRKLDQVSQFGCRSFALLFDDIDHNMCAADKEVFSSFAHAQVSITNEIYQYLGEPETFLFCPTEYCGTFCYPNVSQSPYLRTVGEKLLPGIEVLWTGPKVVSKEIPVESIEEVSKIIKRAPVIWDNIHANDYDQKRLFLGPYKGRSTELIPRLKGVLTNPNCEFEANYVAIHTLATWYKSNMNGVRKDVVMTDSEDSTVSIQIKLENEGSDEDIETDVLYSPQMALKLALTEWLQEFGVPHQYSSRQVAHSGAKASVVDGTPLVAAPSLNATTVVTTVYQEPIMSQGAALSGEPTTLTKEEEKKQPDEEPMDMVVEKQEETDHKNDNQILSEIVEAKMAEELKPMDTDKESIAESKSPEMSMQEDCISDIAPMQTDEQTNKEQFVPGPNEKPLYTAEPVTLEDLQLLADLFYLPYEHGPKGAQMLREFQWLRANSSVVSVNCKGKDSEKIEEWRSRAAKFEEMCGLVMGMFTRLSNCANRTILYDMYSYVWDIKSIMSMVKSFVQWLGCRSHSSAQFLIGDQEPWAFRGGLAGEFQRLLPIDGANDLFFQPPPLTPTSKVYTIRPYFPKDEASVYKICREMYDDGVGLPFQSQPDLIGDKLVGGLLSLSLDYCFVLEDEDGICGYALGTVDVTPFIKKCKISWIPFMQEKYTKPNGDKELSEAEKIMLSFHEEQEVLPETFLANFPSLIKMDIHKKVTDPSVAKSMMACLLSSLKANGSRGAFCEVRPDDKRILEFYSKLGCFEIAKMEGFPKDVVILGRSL

On to `CC(c1ccc2scnc2c1)N1CCC2(CC1)CCN(S(C)(=O)=O)C2` (racemic) [Example 31, 5-(1-(2-(methylsulfonyl)-2,8-diazaspiro[4.5]decan-8-yl)ethyl) benzo[d]thiazole], for which the half-maximal inhibitory concentration (IC50) fell in the range of 1000 to 10000 nM.
As to `CC(c1ccc2c(c1)OCC2)N1CCC2(CC1)CC(=O)N(c1ccc(C#N)cc1)C2` (racemic) [Example 19, 4-(8-(1-(2,3-dihydrobenzofuran-6-yl)ethyl)-3-oxo-2,8-diazaspiro[4.5]decan-2-yl)benzonitrile], the IC50 lay in the range of 1000 to 10000 nM.
For `CC(c1ccc2c(c1)OCC2)N1CCC2(CC1)C(=O)N(Cc1ccc(C#N)cc1)C(=O)N2Cc1ccc(C#N)cc1` (racemic) [Example 30, 4,4′-((8-(1-(2,3-dihydrobenzofuran-6-yl)ethyl)-2,4-dioxo-1,3,8-triazaspiro[4.5]decane-1,3-diyl)bis(methylene))dibenzonitrile] the value was 200 to 1000 nM.
For `CC(c1ccc2scnc2c1)N1CCC2(CC1)C(=O)N(Cc1ccc(S(C)(=O)=O)cc1)C(=O)N2C` (racemic) [Example 77] the value was 1000 to 10000 nM; for `CC(=O)Nc1ncc(CN2CCC3(CC2)NC(=O)N(Cc2cc(C)nc(C)c2)C3=O)s1` (racemic) [IA4], under 50 nM.
For `CC(c1ccc2scnc2c1)N1CCC2(CC1)NC(=O)N(c1cccc(S(C)(=O)=O)c1)C2=O` (racemic) [Example 64] the value was 50 to 200 nM; for `CC(c1ccc2scnc2c1)N1CCC2(CC1)NC(=O)N(c1ccc(F)cc1)C2=O` (racemic) [Example 63], 50 to 200 nM; for `CC(c1ccc2scnc2c1)N1CCC2(CC1)C(=O)N(Cc1ccc(S(C)(=O)=O)cc1)C(=O)N2Cc1ccc(S(C)(=O)=O)cc1` (racemic) [Example 24, 8-(1-(benzo[d]thiazol-5-yl)ethyl)-1,3-bis(4-(methylsulfonyl)benzyl)-1,3,8-triazaspiro[4.5]decane-2,4-dione], 200 to 1000 nM.
As to `CSc1cnc(N2CC3(CCN(Cc4cnc(NC(C)=O)s4)CC3)NC2=O)nc1` (racemic) [IA6], the IC50 is under 50 nM.
`CC(c1ccc2scnc2c1)N1CCC2(CC1)NC(=O)N(c1cncnc1)C2=O` (racemic) [Example 62] gave an IC50 of 50 to 200 nM.
Next, `Cc1cc(N2CCC3(CCN(C(C)c4ccc5scnc5c4)CC3)C2)n2nccc2n1` (racemic) [Example 14, 5-(1-(2-(5-methylpyrazolo[1,5-a]pyrimidin-7-yl)-2,8-diazaspiro[4.5]decan-8-yl)ethyl)benzo[d]thiazole]: 200 to 1000 nM; `Cc1cc(N2CC3(CCN(C(C)c4ccc5scnc5c4)CC3)CC2=O)n2nccc2n1` (racemic) [Example 72]: 1000 to 10000 nM; `CC(c1ccc2scnc2c1)N1CCC2(CC1)NC(=O)N(Cc1cncnc1)C2=O` (racemic) [Example 5]: 50 to 200 nM.
Next, `CC(c1ccc2c(c1)OCC2)N1CCC2(CC1)NC(=O)N(C)C2=O` (racemic) [Example 2, 8-(1-(2,3-dihydrobenzofuran-6-yl)ethyl)-3-methyl-1,3,8-triazaspiro[4.5]decane-2,4-dione]: 200 to 1000 nM.
Next, `CC(c1ccc2scnc2c1)N1CCC2(CC1)C(=O)N(c1ccc(C#N)cc1)c1ccccc12` (racemic) [Example 25, 4-(1′-(1-(benzo[d]thiazol-5-yl)ethyl)-2-oxospiro[indoline-3,4′-piperidin]-1-yl)benzonitrile]: 50 to 200 nM; `CC(c1ccc2scnc2c1)N1CCC2(CC1)NC(=O)N(c1ccc(Cl)cc1)C2=O` (racemic) [Example 65]: 50 to 200 nM.
`CC(c1ccc2scnc2c1)N1CCC2(CCN(c3ccc(C#N)cc3)C2=O)CC1` (racemic) [Example 27, 4-(8-(1-(benzo[d]thiazol-5-yl)ethyl)-1-oxo-2,8-diazaspiro[4.5]decan-2-yl)benzonitrile] displayed an IC50 of 200 to 1000 nM.
Next, `Cc1cc(N2C(=O)NC3(CCN(C(C)c4ccc5scnc5c4)CC3)C2=O)cc(C)n1` (racemic) [Example 60]: under 50 nM.

Values taken from patent publication US11731972B2, “Spiro compounds as glycosidase inhibitors” (Asceneuron SA, priority 2018, dated 2023).
